Source: patent publication US11154589B2, “Antimicrobial composition combinations comprising star shaped peptide polymers” (The University of Melbourne, priority 2016, dated 2021)
Values joined by “and” are separate entries in the source; they are usually repeats but may differ in a detail not shown here. Identical values can stand only once. Marks after values point to notes of the source that are not given here.

What was measured:
[1] = tested on: CMDR P. aeruginosa (FADDI-PA067); test: MBC determination (in vitro antimicrobial experiment, CFU counting); type: cell-based, Pseudomonas aeruginosa; conditions: compound alone
Procedure: (§1) Freeze-dried cultures of Escherichia coli (E. coli, ATCC 25922), Klebsiella pneumoniae (K. pneumoniae, ATCC 13883), Pseudomonas aeruginosa (P. aeruginosa, ATCC 47085), Acinetobacter baumannii (A. baumannii, ATCC 19606), colistin and multidrug-resistant (CMDR) A. baumannii (FADDI-AB156), and CMDR P. aeruginosa (FADDI-PA067) were grown aerobically and maintained by passage at ambient temperature on horse blood agar (10% v/v defibrinated horse blood, 4.4% w/v Oxoid Blood Agar Base No. 2). Overnight cultures were made from transferring a colony (ca. half a loop) from the agar plates to culture tubes containing sterilized Luria-Bertani broth (LB, 1% w/v Bacto™ Tryptone, 1% w/v NaCl, 0.5% w/v Oxoid Yeast Extract) (20 mL). Bacterial cultures were incubated overnight at 37° C. with aeration and without agitation, with the exception of the two P. aeruginosa strains (ATCC 47085 and FADDI-PA067) which were cultured at 37° C. with aeration and agitation (150 rpm). On the next day, for E. coli, K. pneumonia, P. aeruginosa (ATCC 47085), and CMDR P. aeruginosa (FADDI-PA067), small aliquots (i.e., 0.5-3 mL) were taken from the culture tubes, further diluted with LB (20 mL), and incubated for 3-4 h at 37° C. with aeration before use. All bacterial cultures were cultured without agitation, with the exception of P. aeruginosa ATCC 47085 and FADDI-PA067 which were cultured with shaking at 150 rpm. For A. baumannii, an aliquot of 0.5 mL was taken from the overnight culture tube, further diluted with LB (200 mL), and incubated overnight at 37° C. with aeration before use.
(§2) The 96-well plate was then incubated at 37° C. for 1.5 or 3 h. For each well, microbial solution was diluted with saline (0.9% NaCl solution) using an appropriate dilution factor and placed on a LB agar plate (LB broth containing 15 g/L Oxoid Blood Agar Base No. 2). For E. coli, K. pneumoniae, and A. Baumannii (ATCC 19606 and FADDI-AB156), the agar plates were incubated overnight at room temperature, and then at 37° C. with aeration for 2 h. For P. Aeruginosa (ATCC 47085 and FADDI-PA067), the agar plates were incubated at 37° C. with aeration. The number of colony-forming units (CFU) was counted and expressed as CFU/mL. Positive controls consisting of cells without any treatment were used. […] A minimum of two independent experiments (biological replicates) of the assay were conducted and three technical replicates were used in each experiment. Data is expressed as mean±standard deviation (SD) and analysed using student's t-test.

[2] = tested on: Escherichia coli (E. coli, ATCC 25922); test: as above; type: cell-based; conditions: compound alone
Procedure: as §1, §2

[3] = tested on: Acinetobacter baumannii (A. baumannii, ATCC 19606); test: as above; type: cell-based; conditions: compound alone; A. baumannii (wild-type)
Procedure: as §1, §2

[4] = tested on: Pseudomonas aeruginosa (P. aeruginosa, ATCC 47085); test: as above; type: cell-based; conditions: compound alone; P. aeruginosa (wild-type)
Procedure: as §1, §2

[5] = tested on: Klebsiella pneumoniae (K. pneumoniae, ATCC 13883); test: as above; type: cell-based; conditions: compound alone
Procedure: as §1, §2

[6] = tested on: rat hepatoma (H4IIE) cells; test: Apoptosis/necrosis assay (mammalian cell viability); conditions: single agent at a dose equivalent to its MBC (against CMDR A. baumannii); 90 min incubation
Procedure: Rat hepatoma cells (H4IIE) were cultivated in DMEM medium (supplemented with 10% FBS, 1× GlutaMAX™, and 1× penicillin-streptomycin) in a humidified atmosphere containing 5% CO2 at 37° C. Cells were seeded in a T75 flask (ca. 3×10^6 cells/ml) and passaged twice a week prior to performing the subsequent cell viability studies.
Adherent H4IIE cells (obtained from the ATCC, and throughout the course of the study cells were checked for mycoplasma contamination using Mycoplasma stain kit, Myc1, Sigma) were grown to 80% confluence and trypsinised prior to assay. H4IIE cells were chosen for this study as they are standard cell lines used in toxicity studies. Cells were diluted 1:2 with ‘complete’ DMEM and seeded in a 24-well plate (1 mL per well). The cells were incubated at 37° C. in 5% CO2 for 24 h until ca. 95% confluence. The medium was removed. […] The cells were then harvested and all well contents were transferred to round-bottomed polypropylene tubes (5 mL). The cells were washed with cold DPBS, then stained with YO-PRO®-1 and PI (0.2 mL from a stock solution, whereby both dyes were diluted 1:1000 in cold DPBS, per well), and incubated on ice for 20 to 30 min. The cells were analyzed by flow cytometry (Cytomics FC 500 MPL System). Standard compensation was performed using single-colour stained cells. Negative controls using untreated cells were included. […]

[7] = tested on: CMDR A. baumannii (FADDI-AB156); test: S16-antibiotic co-administration, synergy by Bliss Independence and HSA models; type: cell-based, Acinetobacter baumannii
Procedure: as §2
(§3) The Bliss Independence and HSA models were used to calculate drug synergism. […] Biotechnol. 31, 160-165 (2013). With the Bliss Independence model, synergism was calculated using the formula, BICAB=A+B−AB (1), where A and B are the effects of the two drugs in isolation and BICAB is the combined effect of the two drugs as predicted by the Bliss Independence model. […] In the HSA model, if CAB is greater than the greater of A and B, CAB>max(A, B), synergy is observed. The quantitative effect of the compounds when administered alone (i.e., A and B) or in combination (i.e., CAB) was defined as the fractional reduction of the population, R=1−CFUt/CFU0, where CFUt is the CFU/mL measured after treatment, and CFU0 is the CFU/mL measured before treatment.

[8] = tested on: CMDR P. aeruginosa (FADDI-PA067); test: as above; type: cell-based, Pseudomonas aeruginosa
Procedure: as §2, §3

[9] = tested on: Escherichia coli (E. coli, ATCC 25922); test: as above; type: cell-based
Procedure: as §2, §3

[10] = tested on: Acinetobacter baumannii (A. baumannii, ATCC 19606); test: as above; type: cell-based
Procedure: as §2, §3

[11] = tested on: Pseudomonas aeruginosa (P. aeruginosa, ATCC 47085); test: as above; type: cell-based
Procedure: as §2, §3

[12] = tested on: Klebsiella pneumoniae (K. pneumoniae, ATCC 13883); test: as above; type: cell-based
Procedure: as §2, §3

[13] = tested on: CMDR A. baumannii (FADDI-AB156); test: MBC determination (in vitro antimicrobial experiment, CFU counting); type: cell-based, Acinetobacter baumannii; conditions: compound alone
Procedure: as §1, §2

[14] = S16 and antibiotic co-administered, each at MBC50, 3 h
[15] = antibiotic in combination with S16, 3 h, Bliss Independence model
[16] = antibiotic in combination with S16, 3 h, Highest Single Agent model
[17] = co-administered S16 (at MBC50) and antibiotic, antibiotic concentration giving at least 2-log reduction in CFU/mL, 3 h

O=[N+]([O-])[O-].[Ag+] [Ag^+, silver nitrate]
MBC [1]: 38.3 µM | MBC [2]: 3.5 µM | MBC [3]: 8.2 µM | MBC [4]: 1.2 µM | MBC [5]: 10.6 µM | H4IIE cell viability reduced by, compared to the untreated control [6]: 33% | Interaction with S16 as evaluated by the Bliss Independence and HSA models (in words) ([7]; 3 h time point): synergize | Fold reduction of MBC ([7]; MBCeff in combination versus MBC alone): 3.7 fold | MBC in combination [7, 14]: 2.9 µM | Antimicrobial activity on co-administration with S16 compared to compounds alone (log change in CFU/mL) ([7]; all compounds at MBC50, t=3 h): Enhanced antimicrobial activity | Synergistic? (Yes/No) Bliss* [7, 15]: Yes | Synergistic? (Yes/No) HAS* [7, 16]: Yes | MBC in combination, MBCeff [7, 17]: 2.9 μM and 2.9^a μM | Interaction with S16 as evaluated by the Bliss Independence and HSA models (in words) ([8]; 3 h time point): synergize | Fold reduction of MBC ([8]; MBCeff with S16 versus MBC alone): 6.5 fold | MBC in combination [8, 14]: 11.8 µM | Antimicrobial activity on co-administration with S16 compared to compounds alone (log change in CFU/mL) ([8]; all compounds at MBC50, t=3 h): Enhanced antimicrobial activity | Synergistic? (Yes/No) Bliss* [8, 15]: Yes | Synergistic? (Yes/No) HAS* [8, 16]: Yes | MBC in combination, MBCeff [8, 17]: 5.9^a μM | Interaction with S16 as evaluated by the Bliss Independence and HSA models (in words) ([9]; 3 h time point): synergize | MBC in combination [9, 14]: 1.8 µM | Antimicrobial activity on co-administration with S16 compared to compounds alone (log change in CFU/mL) ([9]; all compounds at MBC50, t=3 h): significantly enhanced antimicrobial activity | Synergistic? (Yes/No) Bliss* [9, 15]: Yes | Synergistic? (Yes/No) HAS* [9, 16]: Yes | Interaction with S16 as evaluated by the Bliss Independence and HSA models (in words) ([10]; A. baumannii wild-type, 3 h time point): synergize | Antimicrobial activity on co-administration with S16 compared to compounds alone (log change in CFU/mL) ([10]; A. baumannii wild-type, all compounds at MBC50, t=3 h): significantly enhanced antimicrobial activity | MBC in combination ([10]; A. baumannii, S16 and antibiotic co-administered, each at MBC50, 3 h): 4.1 µM | Synergistic? (Yes/No) Bliss* ([10]; antibiotic in combination with S16, A. baumannii, 3 h, Bliss Independence model): Yes | Synergistic? (Yes/No) HAS* ([10]; antibiotic in combination with S16, A. baumannii, 3 h, Highest Single Agent model): Yes | Interaction with S16 as evaluated by the Bliss Independence and HSA models (in words) ([11]; P. aeruginosa wild-type, 3 h time point): synergize | Antimicrobial activity on co-administration with S16 compared to compounds alone (log change in CFU/mL) ([11]; P. aeruginosa wild-type, all compounds at MBC50, t=3 h): significantly enhanced antimicrobial activity | MBC in combination ([11]; P. aeruginosa, S16 and antibiotic co-administered, each at MBC50, 3 h): 0.5 µM | Synergistic? (Yes/No) Bliss* ([11]; antibiotic in combination with S16, P. aeruginosa, 3 h, Bliss Independence model): Yes | Synergistic? (Yes/No) HAS* ([11]; antibiotic in combination with S16, P. aeruginosa, 3 h, Highest Single Agent model): Yes | Interaction with S16 as evaluated by the Bliss Independence and HSA models (in words) ([12]; 3 h time point): synergize | MBC in combination [12, 14]: 5.3 µM | Antimicrobial activity on co-administration with S16 compared to compounds alone (log change in CFU/mL) ([12]; all compounds at MBC50, t=3 h): significantly enhanced antimicrobial activity | Synergistic? (Yes/No) Bliss* [12, 15]: Yes | Synergistic? (Yes/No) HAS* [12, 16]: Yes | MBC [13]: 10.6 µM
